The nature of series [1]: 1H NMR titration, binding of chloride. The settings on record: n-Bu4N^+ salt, CD3CN/CDCl3 (1/9, v/v), room temperature. On the procedure:
^1H NMR Titration methods. Titrations of 4c and 6c with anions as their tetra-n-butyl ammonium (TBA) salts were carried out by ^1H NMR (400 MHz on Bruker-400) at room temperature (298 K). 0.5 mL of receptor 4c (5.0 mM) or 6c (2.0 mM) were prepared in the rubber-cap NMR tubes. Aliquots of concentrated TBACl or TBAI solution (50 mM for the titration of 4c and 20 mM for the titration of 6c) containing the same amount of receptors were added into the receptor solution using 20 microliter pipette. An initial ^1H NMR spectrum was collected and additional spectra were obtained after each injection of TBACl or TBAI solution. All titration ^1H NMR spectra were stacked together and the chemical shifts of amide protons were then fitted to the proposed 1:1 binding model using BindFit v0.5 (http://app.supramolecular.org/bindfit/).
(§1) Anion binding with four amides, i.e., L1mer-L4mer, was studied in the mixed solvents of CD3CN/CDCl3 (1/9, v/v) by titrating an amide host with 0 to 5 equivalents of tetrabutylammonium (n-Bu4N^+) salt of the corresponding anion. The binding of chloride, bromide, iodide, and nitrate was examined with the four amides in CDCl3 containing 10% CD3CN. The titration data were collected by monitoring the changes in chemical shifts of the backbone amide protons and the inner aromatic protons with varying ratios of the anion guests. Job plots indicate that these linear oligoamides and their anion guests bind in a 1:1 stoichiometry.
(§2) The binding of anions by macrocycle 7c was examined in CH3CN/CHCl3 (6/4, v/v) and in DMSO by titrating with various equivalents of the salts of chloride, iodide. nitrate, and dihydrogen phosphate, with tetrabutylammonium (n-Bu4N^+) being the counterion ion. Following the changes in the chemical shifts of backbone amide protons and “inner” aromatic protons allowed the determination of binding constants.
^1H NMR titration methods. Titrations of c5a and c5b with anions as their tetra-n-butylammonium (TBA), tetra-ethylammonium (TEA) and tetra-methylammonium (TMA) salts were carried out by ^1H NMR (400 MHz) at 25° C. […]

Series [2] in a line: 1H NMR titration, binding of nitrate. The settings on record: n-Bu4N^+ salt, CD3CN/CDCl3 (1/9, v/v), room temperature.
From the text: as §1, §2
^1H NMR titration methods. Titrations of c5a and c5b with anions as their tetra-n-butylammonium (TBA), tetra-ethylammonium (TEA) and tetra-methylammonium (TMA) salts were carried out by ^1H NMR (400 MHz) at 25° C. 0.4 mL of corresponding hosts solutions were prepared in the rubber-cap NMR tubes. Aliquots of concentrated guest solution containing hosts were added into the NMR tubes using 20 microliter pipette. An initial ^1H NMR spectrum was collected and additional spectra were obtained after each injection of guest solution. All titration ^1H NMR spectra were stacked together and the chemical shifts of the internal aromatic CH proton were then fitted to 1:1 binding model using BindFit v0.5 (http://app.supramolecular.org/bindfit/) to evaluate binding constants to anions.

Another series is described as follows: Solubility. Format: physicochemical.
For series [3] the following is noted: pH 8.3, in water; cited from earlier work.

`CCCCCCCCCC(=O)Nc1ccc(NC(=O)C(C)(C)COCCCCCCCC)c(C(=O)NCCCCCC)c1` [Compound L1mer]: in series [1], the Ka of chloride came to 39 M⁻¹. Regarding `CCCCCCCCCC(=O)Nc1ccc(NC(=O)C(C)(C)COCCCCCCCC)c(C(=O)Nc2ccc(NC(=O)C(C)(C)COCCCCCCCC)c(C(=O)Nc3ccc(NC(=O)C(C)(C)COCCCCCCCC)c(C(=O)Nc4ccc(NC(=O)C(C)(C)COCCCCCCCC)c(C(=O)NCCCCCC)c4)c3)c2)c1` [Compound L4mer], the Ka of chloride entry in series [1] was “over 1,000 M^−1”. In addition, in series [2], the Ka of nitrate was roughly 10000 M⁻¹. For the compound `COCCOCCOCCOCC(C)(C)C(=O)Nc1ccc2cc1C(=O)Nc1ccc(NC(=O)C(C)(C)COCCOCCOCCOC)c(c1)C(=O)Nc1ccc(NC(=O)C(C)(C)COCCOCCOCCOC)c(c1)C(=O)Nc1ccc(NC(=O)C(C)(C)COCCOCCOCCOC)c(c1)C(=O)Nc1ccc(NC(=O)C(C)(C)COCCOCCOCCOC)c(c1)C(=O)N2` [c5b], the “solubility in organic solvents” value in “Solubility” (variety of / many organic solvents) is reported as “soluble”. Besides, the solubility in water in the series “Solubility” (water) is on record as ~ 1 mM. As to “SBP: sulfate-binding protein (SBP) from the gram-negative bacterium S. typhimurium”, the “Ka for the sulfate ion” value in series [3] is 8.3e+06 M⁻¹.

These data come from patent publication US20260272879A1, “ANION-BINDING AROMATIC OLIGOAMIDE MACROCYCLES AND METHODS OF MAKING AND USING SAME” (The Research Foundation for The State University of New York, priority 2023, published 2026).
